From ChEMBL document CHEMBL5046222, “Multifunctional Arylsulfone and Arylsulfonamide-Based Ligands with Prominent Mood-Modulating Activity and Benign Safety Profile, Targeting Neuropsychiatric Symptoms of Dementia” (J Med Chem, 2021)

What was measured:
Rattus norvegicus [1] = species on record: Rattus norvegicus; conditions: in vivo, ip, 10 min
[2] = target: 5-hydroxytryptamine receptor 6 (Homo sapiens) (UniProt P50406); conditions: CHO-K1, filed as antagonist, time 1.0 hrs
Rattus norvegicus [3] = species on record: Rattus norvegicus; experiment: animal or person; conditions: Wistar, ip, read-out: MED

5-hydroxytryptamine receptor 6 (Homo sapiens), sequence (P50406 whole entry): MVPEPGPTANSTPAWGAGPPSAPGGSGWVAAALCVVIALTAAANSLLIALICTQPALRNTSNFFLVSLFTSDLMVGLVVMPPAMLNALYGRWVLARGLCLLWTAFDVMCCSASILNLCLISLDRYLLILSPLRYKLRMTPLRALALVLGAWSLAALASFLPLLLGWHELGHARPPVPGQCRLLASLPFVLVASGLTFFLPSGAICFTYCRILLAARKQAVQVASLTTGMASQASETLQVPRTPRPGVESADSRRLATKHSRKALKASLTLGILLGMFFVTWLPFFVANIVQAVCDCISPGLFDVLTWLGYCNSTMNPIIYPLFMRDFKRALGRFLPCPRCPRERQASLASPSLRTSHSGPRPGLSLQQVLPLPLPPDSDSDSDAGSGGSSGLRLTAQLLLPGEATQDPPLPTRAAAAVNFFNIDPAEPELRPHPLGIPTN

Structure (SMILES)	MED (Rattus norvegicus [1])	pKb [2]	minimal effective dose (Rattus norvegicus [3])
O=C1CC2(CCCC2)CC(=O)N1CCCCN1CCN(c2ncccn2)CC1 [BUSPIRONE]	1 mg/kg		
CN(C)CCCN1c2ccccc2CCc2ccccc21 [IMIPRAMINE]	10 mg/kg		
O=S(=O)(c1ccccc1)c1cnc2c(N3CCNCC3)cccc2c1		9.47	
CN1C(=O)CN=C(c2ccccc2)c2cc(Cl)ccc21 [DIAZEPAM]	3 mg/kg		
CC(C)COc1ccc(CNC(=O)N(Cc2ccc(F)cc2)C2CCN(C)CC2)cc1 [PIMAVANSERIN]	0.1 mg/kg		0.1 mg/kg
